The results in this text go back to US12685312B2, “Sulfonamide apyrase inhibitors” (Texas Crop Science, Inc., priority 2022, dated 2026).

For assay [1], the system named is apyrase. The assay is described as follows: Screen for apyrase inhibitors (Method 1, in vitro phosphate-release absorbance assay). Format: biochemical. The note with it: inhibitor conc at 1 mM stock, 1 hr room temperature, absorbance 630 nm; rounded average of two assay results. Summed up:
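Phosphate-release colorimetric assay (Windsor method) in 60 mM Hepes, 3 mM MgCl2, 3 mM CaCl2, 3 mM ATP, pH 6.5, with compound or DMSO control added. Released phosphate developed with ammonium molybdate and ascorbic acid/TCA, then stopped with citrate/acetic acid.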

The subject of assay [2] is plant pathogenic fungi (Zymoseptoria tritici strains, Microdochium nivale). The assay is described as follows: In vitro combination assay (Method 2), overall comparison with Roux Compound 13. The assay is classed as cell-based. The note with it: azoxystrobin, fluxapyroxad, desthio prothioconazole; three fungal strains. Here is the method: (§1) Method 2: In Vitro Assessment of Combination Activity
(§2) Selected compounds were assessed in combination with fungicides against a range of commercially important plant pathogenic fungi.
(§3) The test was conducted as follows. A fungicide was applied to a fungal plant pathogen at a rate slightly below that at which it gave any control, in combination with a suitable dose of the test compound. The test compound was recorded as active if control of the pathogen was observed.
(§4) In more detail, the test was conducted as follows. For each combination of fungicide, pathogen and test compound, the following wells were used. Well 1 contained a fungal pathogen growing on agar, and a fungicide at a rate just below that at which it gave any control of the pathogen. Well 2 was the same as Well 1, except that the test compound was also added at Rate 1. Well 3 was the same as Well 2, except that the test compound was added at Rate 2, where Rate 2 was higher than Rate 1. Finally, as a benchmark, Well 4 was the same as Well 1, except that it contained the fungicide at a higher rate, at which it gave partial control of the pathogen. Each of the Wells 1 to 4 were run in duplicate, giving a total of 8 wells for each combination of fungicide, pathogen and test compound. For each well, after a suitable period of incubation, a visual assessment of the % control of the pathogen by the fungicide was made.
(§5) The following fungicides were used in this assay: azoxystrobin, fluxapyroxad, and desthio prothioconazole. The following fungal pathogens were used in this assay: First, a strain of Zymoseptoria tritici with a reduced susceptibility to strobilurin fungicides; second a strain of Zymoseptoria tritici with a reduced susceptibility to SDHI fungicides (i.e., those that inhibit succinate dehydrogenase); and third, Microdochium nivale.

For assay [3], the system named is Asian Soya Rust (Phakopsora pachyrhizi) on soybean. Kind of assay: Greenhouse crop test (Method 3), Asian Soya Rust on soybean. The assay is classed as in vivo. The note with it: Proline 0.15 L/ha. As for the experimental part:
(§6) Method 3: Greenhouse Crop Tests
(§7) In this method, exemplary compounds were evaluated for their ability to control Zymoseptoria tritici on wheat, Botrytis cinerea on tomatoes, Asian Soya Rust (Phakopsora pachyrhizi) on soybean, and Brown Rust (Puccinia recondita) on wheat, in a controlled greenhouse environment in combination with one of four fungicides, Amistar, Imtrex, Proline or Balaya. In these studies, soybean cultivar Siverka, tomato (Money maker) and wheat plants (JB Diego) were used. […] Each plant was evaluated once the disease symptoms were fully expressed between seven to twenty days (depending on the pathogen) for % control of the disease. […] Also, each commercial fungicide was tested on its own as a part of each treatment, this being benchmark against which the experimental compounds were evaluated. […]

Assay [4] has as its system Botrytis cinerea on tomatoes. Kind of assay: Greenhouse crop test (Method 3), Botrytis cinerea on tomatoes. The assay is classed as in vivo. The note with it: Botrytis cinerea on tomato, Imtrex 0.005 L/ha. Here is the method: as §6
In this method, exemplary compounds were evaluated for their ability to control Zymoseptoria tritici on wheat, Botrytis cinerea on tomatoes, Asian Soya Rust (Phakopsora pachyrhizi) on soybean, and Brown Rust (Puccinia recondita) on wheat, in a controlled greenhouse environment in combination with one of four fungicides, Amistar, Imtrex, Proline or Balaya. In these studies, soybean cultivar Siverka, tomato (Money maker) and wheat plants (JB Diego) were used. Seeds were sown in 9 cm diameter pots to a depth of 1 to 2 cm using Petersfield potting compost (75% medium grade peat, 12% screened sterilized loam, 3% medium grade vermiculite, 10% grit (5 mm screened, lime free), 1.5 kg PG mix per m3, lime to pH5.5-6.0 and wetting agent (Vitax Ultrawet 200 ml per m3) and germinated/grown at 23 C under a 16 h day/8 h night light regime. Plants were treated two to three weeks after sowing when they were at the BBCH 11 growth stage (first pair of true leaves (unifoliate) unfolded. A track sprayer was used to treat the plants with the mixture of commercial fungicide and test compound using a water volume of 200 L/ha. Plants were inoculated with the appropriate fungi (pathogen) 24 hours after treatment. Fungal pathogens used were Botrytis cinerea (Grey mold on tomato plants), Zymoseptoria tritici (Septoria leaf blotch on wheat plants), Puccinia triticina (Brown rust on wheat plants) and Phakopsora pachyrhizi (Asian soy rust on soybean plants). Four replicates were used for each combination of fungicide, pathogen and test compound. Each plant was evaluated once the disease symptoms were fully expressed between seven to twenty days (depending on the pathogen) for % control of the disease. Appropriate controls were used for all experiments, including an ‘inoculation check’ wherein plants were inoculated with their specific pathogen to assess disease levels. Also, each commercial fungicide was tested on its own as a part of each treatment, this being benchmark against which the experimental compounds were evaluated. […]

For assay [5], the system named is Zymoseptoria tritici on wheat. Kind of assay: Greenhouse crop test (Method 3), Zymoseptoria tritici on wheat. Format: in vivo. The note with it: for enhancement of Imtrex over Imtrex alone: Imtrex 0.02 L/ha. Here is the method: as §6
In this method, exemplary compounds were evaluated for their ability to control Zymoseptoria tritici on wheat, Botrytis cinerea on tomatoes, Asian Soya Rust (Phakopsora pachyrhizi) on soybean, and Brown Rust (Puccinia recondita) on wheat, in a controlled greenhouse environment in combination with one of four fungicides, Amistar, Imtrex, Proline or Balaya. In these studies, soybean cultivar Siverka, tomato (Money maker) and wheat plants (JB Diego) were used. Seeds were sown in 9 cm diameter pots to a depth of 1 to 2 cm using Petersfield potting compost (75% medium grade peat, 12% screened sterilized loam, 3% medium grade vermiculite, 10% grit (5 mm screened, lime free), 1.5 kg PG mix per m3, lime to pH5.5-6.0 and wetting agent (Vitax Ultrawet 200 ml per m3) and germinated/grown at 23 C under a 16 h day/8 h night light regime. Plants were treated two to three weeks after sowing when they were at the BBCH 11 growth stage (first pair of true leaves (unifoliate) unfolded. A track sprayer was used to treat the plants with the mixture of commercial fungicide and test compound using a water volume of 200 L/ha. Plants were inoculated with the appropriate fungi (pathogen) 24 hours after treatment. Fungal pathogens used were Botrytis cinerea (Grey mold on tomato plants), Zymoseptoria tritici (Septoria leaf blotch on wheat plants), Puccinia triticina (Brown rust on wheat plants) and Phakopsora pachyrhizi (Asian soy rust on soybean plants). Four replicates were used for each combination of fungicide, pathogen and test compound. Each plant was evaluated once the disease symptoms were fully expressed between seven to twenty days (depending on the pathogen) for % control of the disease. Appropriate controls were used for all experiments, including an ‘inoculation check’ wherein plants were inoculated with their specific pathogen to assess disease levels. Also, each commercial fungicide was tested on its own as a part of each treatment, this being benchmark against which the experimental compounds were evaluated. […] That is, the present compounds, although not fungicidal by themselves, enhance the activity of fungicides, thus the enhancer compounds work synergistically in combination with fungicides to control disease.
In these studies the fungicide was applied at the following rates

For assay [6], the system named is Microdochium nivale. The assay is described as follows: In vitro assessment of combination activity with fungicides (Method 2).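 Also: scored as inactive active or highly active.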 The note with it: fungicide at a rate just below that giving any control; visual % control. The assay is classed as cell-based. As for the experimental part:
as §1, §2, §3, §4, §5

Assay [7] concerns Zymoseptoria tritici with a reduced susceptibility to SDHI fungicides. Described as above. The assay is classed as cell-based. The note with it: fungicide at a rate just below that giving any control; visual % control. As for the experimental part:
as §1, §2, §3, §4, §5

Assay [8] relates to Zymoseptoria tritici with a reduced susceptibility to strobilurin fungicides. The description is as above. Format: cell-based. The note with it: fungicide at a rate just below that giving any control; visual % control. Here is the method:
as §1, §2, §3, §4, §5

Assay [9] has as its system Brown Rust (Puccinia recondita) on wheat. The assay is described as follows: Greenhouse crop test (Method 3), Brown Rust on wheat. The note with it: Imtrex 0.45 L/ha. The assay is classed as in vivo. Here is the method:
as §6, §7
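For enhancement of activity of desthio prothioconazole in this document: scored as inactive active or highly active.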
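For enhancement of activity of fluxapyroxad in this document: scored as inactive active or highly active.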

Take `O=C(Nc1ccc(Br)cc1)c1cccc(S(=O)(=O)Nc2ccc(F)cc2)c1` [I-222, N-(4-bromophenyl)-3-(N-(4-fluorophenyl)sulfamoyl)benzamide]: the “% Inhibition of Apyrase” value in assay [1] was 71%. Further, in assay [2], the “enhancer activity in the combination assay compared with Roux Compound 13” value is “superior enhancer activity than Roux Compound 13”. Further, in [3], the “enhancement of the activity of Proline” value is “greater than 60%”.

As for `O=C(Nc1ccc2c(c1)OCO2)c1ccccc1NS(=O)(=O)c1cccc(C(F)(F)F)c1` [I-213, N-(benzo[d][1,3]dioxol-5-yl)-2-((3-(trifluoromethyl)phenyl)sulfonamido) benzamide], the “% Inhibition of Apyrase” value in assay [1] stood at 71%. The “enhancer activity in the combination assay compared with Roux Compound 13” value in assay [2] is reported as “superior enhancer activity than Roux Compound 13”. Further, the “enhancement in combination with Imtrex over Imtrex alone” value in assay [4] was “about 30%”.

With `O=C(Nc1cccc(-c2ccn[nH]2)c1)c1cccc(S(=O)(=O)Nc2ccc(Br)cc2)c1` [I-239, N-(3-(1H-pyrazol-5-yl)phenyl)-3-(N-(4-bromophenyl)sulfamoyl)benzamide], the “% Inhibition of Apyrase” value in assay [1] was determined as 73%. For the same molecule, in assay [2], the “enhancer activity in the combination assay compared with Roux Compound 13” value is reported as “superior enhancer activity than Roux Compound 13”. Besides, in [5], the “enhancement of Imtrex over Imtrex alone” value is given as “about 30%”.

For the molecule `O=C(Nc1cccc(NS(=O)(=O)c2ccc(Br)cc2Cl)c1)c1ccco1` [I-234, N-(3-((4-bromo-2-chlorophenyl)sulfonamido)phenyl)furan-2-carboxamide], the “% Inhibition of Apyrase” value in assay [1] was 66%. The “enhancement of activity of desthio prothioconazole” value in assay [6], in [7] and in assay [8] was “enhancing fungicidal activity” in each case. Besides, the “enhancement of activity of fluxapyroxad” value in assay [6] and in [7] was “enhancing fungicidal activity” throughout. Besides, the “enhancer activity in the combination assay compared with Roux Compound 13” value in assay [2] is given as “superior enhancer activity than Roux Compound 13”.

`O=C1CSc2ccc(C(=O)Nc3cccc(S(=O)(=O)Nc4ccc(Br)cc4)c3)cc2N1` [I-198, N-(3-(N-(4-bromophenyl)sulfamoyl)phenyl)-3-oxo-3,4-dihydro-2H-benzo[b][1,4]thiazine-6-carboxamide]: the “% Inhibition of Apyrase” value in assay [1] is 79%. For the same molecule, the “enhancer activity in the combination assay compared with Roux Compound 13” value in assay [2] is “superior enhancer activity than Roux Compound 13”. For the same molecule, the “enhancement of the activity of Proline” value in assay [3] was “over 90%”. Moreover, the “enhancement of Imtrex over Imtrex alone” value in assay [5] is listed as “about 30%”.

For `O=C(Nc1ccc2c(c1)OCO2)c1ccc(S(=O)(=O)Nc2ccccc2Cl)cc1` [I-388, N-(benzo[d][1,3]dioxol-5-yl)-4-(N-(2-chlorophenyl)sulfamoyl)benzamide], the “% Inhibition of Apyrase” value in [1] was determined as 63%. Further, in assay [5] (Balaya 0.0015 L/ha), the “enhancement of Balaya” value is listed as “greater than 45%”.

For the molecule `Cc1ccc(C(=O)Nc2ccccc2S(=O)(=O)Nc2ccccc2)cc1F` [I-236, 3-fluoro-4-methyl-N-(2-(N-phenylsulfamoyl)phenyl)benzamide], in assay [1], the “% Inhibition of Apyrase” value worked out at 30%. Besides, the “enhancer activity in the combination assay compared with Roux Compound 13” value in [2] is “superior enhancer activity than Roux Compound 13”. Besides, in assay [4], the “enhancement in combination with Imtrex over Imtrex alone” value is listed as “about 30%”.

Consider `NS(=O)(=O)c1cccc(NC(=O)c2ccc(S(=O)(=O)Nc3ccc(Cl)cc3)cc2)c1` [I-387, 4-(N-(4-chlorophenyl)sulfamoyl)-N-(3-sulfamoylphenyl)benzamide], for which the “% Inhibition of Apyrase” value in [1] was determined as 65%. In [4], the “enhancement in combination with Imtrex over Imtrex alone” value is listed as “about 30%”.

For the molecule `O=C(Nc1ccccc1S(=O)(=O)N1CCCC1)c1cccc(C(F)(F)F)c1` [I-826, N-(2-(pyrrolidin-1-ylsulfonyl)phenyl)-3-(trifluoromethyl)benzamide], the “% Inhibition of Apyrase” value in assay [1] is 40%. The “additional Brown Rust control benefit in combination with Imtrex over Imtrex alone” value in assay [9] was “greater than 50%”.

For the molecule `Cc1ccc(NS(=O)(=O)c2ccc(C(=O)N3CCc4ccccc43)cc2)cc1` [I-385, 4-(indoline-1-carbonyl)-N-(p-tolyl)benzenesulfonamide], the “% Inhibition of Apyrase” value in assay [1] is listed as 65%. Moreover, the “enhancement of Imtrex over Imtrex alone” value in [5] was “greater than 40%”.

As to `Cc1ccc(NC(=O)c2cccc(S(=O)(=O)Nc3cccc(Cl)c3)c2)nc1` [I-595, 3-(N-(3-chlorophenyl)sulfamoyl)-N-(5-methylpyridin-2-yl)benzamide], the “% Inhibition of Apyrase” value in assay [1] is 36%. Moreover, the “additional Brown Rust control benefit in combination with Imtrex over Imtrex alone” value in assay [9] is on record as “greater than 40%”.
